# No end group written: not given here.
# Legend:
# [1] = system: S. aureus (MRSA); assay type: cell-based, Staphylococcus aureus; details: Table 15, strain SAP0017; in µg/mL
# [2] = system: S. epidermidis C621; assay type: cell-based, Staphylococcus epidermidis; details: Table 15
# [3] = system: E. coli UB1005; assay type: cell-based, Escherichia coli; details: Table 14
# [4] = system: S. typhimurium 14028S; assay type: cell-based, Salmonella typhimurium; details: Table 14
# [5] = system: P. aeruginosa H374; assay type: cell-based, Pseudomonas aeruginosa; details: Table 14; in µg/mL
# [6] = system: Pseudomonas aeruginosa H187; assay type: cell-based; details: Table 15; in µg/mL
# [7] = system: Candida albicans 105; assay type: cell-based; details: Table 15; in µg/mL
# [8] = system: Pseudomonas aeruginosa ATCC 9027; test: Antimicrobial assay I, MIC by OD measurement; assay type: cell-based; details: 37° C. for 24 hours, absorbance 620 nm
# [9] = system: Staphylococcus aureus ATCC 6538; test: Antimicrobial assay I, MIC by OD measurement; assay type: cell-based; details: 37° C. for 24 hours, absorbance 620 nm
# [10] = system: yeast (Saccharomyces cerevisiae); test: Antimicrobial assay I, yeast assay in RPMI 1640; assay type: cell-based; details: RPMI 1640 media
# [11] = system: BMKC; test: Anti-cancer assay, MTT, LD50; assay type: cell-based; details: BMKC cloned melanoma line, 24 hours with peptide
# Description: (§1) Numbers are LD50 values (μg/mL).
# [12] = system: H1299; test: Anti-cancer assay, MTT, LD50; assay type: cell-based; details: 24 hours with peptide, lung large cell carcinoma
# Description: as §1
# [13] = system: HeLaS3; test: Anti-cancer assay, MTT, LD50; assay type: cell-based; details: 24 hours with peptide, cervical carcinoma
# Description: as §1
# [14] = system: MCF7; test: Anti-cancer assay, MTT, LD50; assay type: cell-based; details: MCF7 breast adenocarcinoma line, MTT, 24 hours with peptide
# Description: as §1
# [15] = system: PC3; test: Anti-cancer assay, MTT, LD50; assay type: cell-based; details: 24 hours with peptide, prostate adenocarcinoma
# Description: as §1
# [16] = system: SW480; test: Anti-cancer assay, MTT, LD50; assay type: cell-based; details: SW480 colon adenocarcinoma line, 24 hours with peptide
# Description: as §1
# [17] = system: human leukocyte (WBC) cells; test: Stimulation and proliferation of leukocytes, Alamar Blue; assay type: cell-based; details: for Peptide treated cell activity Percent stimulation relative to control: 48 hours
# Protocol: In vitro viability of human leukocyte cells in the presence of different peptides at different concentrations was determined by an Alamar Blue protocol. Alamar Blue (Promega, Madison, Wis.) is an indicator dye, formulated to measure quantitatively the proliferation and cytotoxicity of the cells. The dye consists of an oxidation-reduction (redox) indicator that yields a calorimetric change and a fluorescent signal in response to cellular metabolic activity.
# Assay protocol: Blood from a human was drawn and centrifuged at 1500 rpm for 15 minutes at room temperature. The buffy coat cells at the plasma-red blood cell interface were aspirated. Buffy coat cells (mainly lymphocyte cells) were then transferred into 15 ml centrifuge tubes containing 5 ml of RPMI-1640 medium+10% Fetal Bovine Serum (Gibco, Grand Island, N.Y.). Additional medium was added to the tubes to bring the volume up to 10 ml. The buffy coat suspension was then carefully layered on 5 ml of Histopaque (Sigma Chemical Co., St. Louis, Mo.) and centrifuged at 1500 rpm for 30 minutes at room temperature. The interface which is mostly PBMCs (peripheral mononuclear cells) was aspirated and transferred to a 15 ml conical centrifuge tube and, resuspended in 2 ml cold RPMI-1640 and brought up to 15 ml with cold RPMI-1640 medium. Cells were centrifuged at 1500 rpm for 10 minutes. The supernatant was then aspirated and discarded. The cell pellet was re-suspended in 1 ml of cold RPMI 1640 and brought up to 15 ml with RPMI medium. This step was repeated twice, except that in the last step, the cells were resuspended with 1 ml of cold RPMI-1640 medium and cell counts were performed with a hemocytometer according to the Sigma cell culture catalogue.
# Pokewood mitogen was used as a control along with positive and negative controls. Negative control cells were killed with 70% methanol. Positive (+) control cells were incubated in RPMI medium (untreated). […] of AlamarBlue was added to the cells, and readings were taken after 24 hours, 48 hours, 72 hours, and 96 hours using a fluorimeter (excitation 544/transmission 590 nm).
# Calculations were performed using the following formula. The peptide treated sample and positive control were adjusted for negative control. [formula]
# Using the protocol described immediately above, about 100-150 peptides were screened for their stimulatory and/or inhibitory actions upon the growth of human leukocyte (“WBC”) cells as compared to the growth of untreated positive control cells.
# The Alamar Blue stain used in the protocol permeates both cell and nuclear membranes, and is metabolized in the mitochondria to cause the change in color. The resulting fluorometric response is therefore a result of total mitochondrial activity caused by cell stimulation and/or mitosis (cell proliferation).
# [18] = system: human red blood cells (RBC); test: in vitro; assay type: cell-based; details: for Peptide toxicity RBC LD/50: human red blood cells
# [19] = system: WI38; details: MTT, 24 hours with peptide
# [20] = in vitro; details: human, WI38 normal lung fibroblast cells
# [21] = Peptide toxicity WI-38 LD/50, human fibroblast cells
Substance,MIC S. aureus SAP0017 [1],MIC S. epidermidis C621 [2] [µg/mL],MIC E. coli UB1005 [3] [µg/mL],MIC S. typhimurium 14028S [4] [µg/mL],MIC P. aeruginosa H374 [5],MIC P. aeruginosa H187 [6],MIC C. albicans 105 [7],Peptide treated cell activity Percent stimulation relative to control ([17]; 0.1 ug/ml) [%],Peptide treated cell activity Percent stimulation relative to control ([17]; 1 ug/ml) [%],Peptide treated cell activity Percent stimulation relative to control ([17]; 10 ug/ml) [%],Peptide treated cell activity Percent stimulation relative to control ([17]; 100 ug/ml) [%],Peptide treated cell activity Percent stimulation relative to control ([17]; 500 ug/ml) [%],Peptide toxicity RBC LD/50 [18],other results
FAFAKIIAKIAKKII-NH2 [P140 (102)],>128,> 128,> 128,> 128,>128,>128,>128,–,–,–,–,–,–,–
FAKKLAKALL-NH2 [P58 (38)],>128,> 128,> 128,> 128,>128,>128,64,–,–,–,–,–,–,–
FAKLLAKAFKKAL-NH2 [P114 (78)],>128,64,32,128,>128,>128,64,–,–,–,–,–,–,–
FAKGVGKVGKKAL-NH2 [P137 (99)],>128,> 128,> 128,> 128,>128,>128,>128,–,–,–,–,–,–,–
FAKIIAKIAKIAKKIL-NH2 [P139 (101)],>128,64,64,> 128,>128,128,128,–,–,–,–,–,–,–
FAKLLAKLAKKAA-NH2 [P93 (59)],>128,> 128,128,> 128,128,>128,64,–,–,–,–,–,–,–
KWKLF-NH2 [P131 (93)],>128,> 128,> 128,> 128,>128,>128,>128,–,–,–,–,–,–,–
FKRLAKIKVLRLAKIKR-NH2 [P147 (109)],>128,64,64,128,128,>128,64,–,–,–,–,–,–,–
FALAKALKKAL-NH2 [P166 (127)],>128,> 128,> 128,> 128,>128,>128,>128,–,–,–,–,–,–,–
FAKLLAKLAKKFAL-NH2 [P120 (82)],>128,> 128,> 128,> 128,128,>128,64,–,–,–,–,–,–,–
FAKLLAKKLL-NH2 [P57 (37)],>128,> 128,> 128,> 128,>128,>128,128,–,–,–,–,–,–,–
KAKLF-NH2 [P130 (92)],>128,> 128,> 128,> 128,>128,>128,>128,–,–,–,–,–,–,–
FALALKAKKL-NH2 [P182],–,–,–,–,–,–,–,–,–,–,–,–,–,"paerug9027 (MIC) [8]: > (> indicates greater than 200 μg/mL); staph6538 (MIC) [9]: > (> indicates greater than 200 μg/mL); yeast (MIC or MFC) [10]: > (> indicates greater than 200 μg/mL); LD50 BMKC [11]: > (> indicates greater than 1000); H1299 LD50 [12]: > (> indicates greater than 1000); HeLaS3 LD50 [13]: > (> indicates greater than 1000); LD50 MCF7 [14]: > (> indicates greater than 1000); PC3 LD50 [15]: > (> indicates greater than 1000); LD50 SW480 [16]: > (> indicates greater than 1000); stimulatory and/or inhibitory action on growth of human leukocyte (WBC) cells ([17]; compared to untreated positive control cells, Alamar Blue): stimulatory (and/or proliferative) at all concentrations through 500 μg/ml; LD50 ([18]; hemolytic assay, concentration at 50% hemolysis, 1 hour at 37° C.): > (> indicates greater than 1000); WI38 LD50 ([19]; normal fibroblast line): > (> indicates greater than 1000); LD50 WI38 ([19]; WI38 normal lung fibroblast line): > (> indicates greater than 1000)"
FAKKFAKKFKKFAKKFAKFAFAF-NH2 [compound 147],–,–,–,–,–,–,–,100,94,83,22,20,10,CC50 at 24 h [20]: 66 µg/mL
FALALKALKKLKKALKKAL-NH2 [compound 12],–,–,–,–,–,–,–,108,110,99,30,23,125,"CC50 at 24 h [20, 21]: 37 µg/mL"
FAKALAKLAKKLL-NH2 [compound 58],–,–,–,–,–,–,–,112,112,98,35,26,300,"CC50 at 24 h [20, 21]: 25 µg/mL"
FALALKALKKLAKKLKKLAKKAL-NH2 [compound 10],–,–,–,–,–,–,–,117,104,99,27,27,60,"CC50 at 24 h [20, 21]: 24 µg/mL"
LPKWKVFKKIEKVGRNIRNGIVKAGPAIAVLGEAKALG-NH2 [compound 150],–,–,–,–,–,–,–,97,101,94,109,112,>1000,"CC50 at 24 h [20, 21]: 320 µg/mL"
VAKLLAKLAKKLL-NH2 [compound 30],–,–,–,–,–,–,–,74,68,62,13,13,130,"CC50 at 24 h [20, 21]: 60 µg/mL"

# Source: US20050209157A1, “Short bioactive peptides and methods for their use” (priority 2001, published 2005)
